# Reference: patent US20250277012A1 (Protagonist Therapeutics, Inc., priority 2021, published 2025)
# Starred links: 1 amine or outer side, 2 acyl side, 3 side chain; linkers in the order of their positions; H or OH if unused. Positions of bridges follow the written chain, without caps; N, C: chain ends. Non-standard residues stand in square brackets, D forms with d. Residues, ends and D or L forms follow the SMILES beside them. Groups on a side chain read outwards from the residue. ξ: configuration not given here. *: point of attachment. X13 = COC(=O)CCCCCCCCCCCCCCCCC(=O)NCC[N+](C)(C)CC(=O)*; X1 = C[N+](C)(CCNC(=O)CCCCCCCCCCCCCCCCC(=O)O)CC(=O)*; X5 = CCCCCCCCCCCCCCCC(=O)NCC[N+](C)(C)CC(=O)*; Dip = N[C@H](C(=O)O)C(c1ccccc1)c1ccccc1; ξDip = NC(C(=O)O)C(c1ccccc1)c1ccccc1; Pro(3R-OH) = O=C(O)[C@H]1NCC[C@H]1O; Ethylenediamine = C(CN[*:2])N[*:1]; Palmitoyl = CCCCCCCCCCCCCCCC(=O)*; NMeT = CN[C@H](C(=O)O)[C@@H](C)O; NMeE = CN[C@@H](CCC(=O)O)C(=O)O; β3hF = N[C@H](CC(=O)O)Cc1ccccc1; NMeK = CN[C@@H](CCCCN)C(=O)O; Isovaleryl = CC(C)CC(=O)*; hSer = N[C@@H](CCO)C(=O)O; dDap = NC[C@@H](N)C(=O)O; AEEA = NCCOCCOCC(=O)O; Ahx = NCCCCCC(=O)O; ξC = NC(CS)C(=O)O
# Target: T1, ferroportin (Homo sapiens, UniProt Q9NP59)
# T1 sequence (Q9NP59 1-571): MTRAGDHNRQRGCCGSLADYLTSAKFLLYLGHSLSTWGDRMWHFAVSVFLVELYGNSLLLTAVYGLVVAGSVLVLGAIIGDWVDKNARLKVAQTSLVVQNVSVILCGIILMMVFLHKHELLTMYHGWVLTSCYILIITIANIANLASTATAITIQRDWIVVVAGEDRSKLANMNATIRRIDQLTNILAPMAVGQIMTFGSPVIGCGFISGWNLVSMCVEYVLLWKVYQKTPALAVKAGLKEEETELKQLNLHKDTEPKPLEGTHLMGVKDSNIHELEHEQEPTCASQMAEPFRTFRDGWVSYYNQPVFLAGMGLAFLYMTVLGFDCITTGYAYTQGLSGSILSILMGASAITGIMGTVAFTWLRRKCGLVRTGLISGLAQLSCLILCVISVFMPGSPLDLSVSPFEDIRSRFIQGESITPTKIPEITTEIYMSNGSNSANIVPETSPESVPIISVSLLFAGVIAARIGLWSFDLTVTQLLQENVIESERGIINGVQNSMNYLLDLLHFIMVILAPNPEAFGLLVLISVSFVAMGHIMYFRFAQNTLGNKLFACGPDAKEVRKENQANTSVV
# Experiment: T47D cell-based ferroportin internalization assay in presence of mouse serum albumin (MSA)
# Parameters: a human breast carcinoma adherent cell line which endogenously expresses ferroportin; host or cells: T47D
# Conditions: Table 6E; T47D internalization assay with MSA
# Experimental: The potency of the peptides in causing ferroportin internalization was evaluated in a T47D cell-based assay. […] In this internalization assay, the potency of the test peptides was evaluated in presence of serum albumin which is the main protein component in the blood. T47D cells were maintained in RPMI media (containing required amount of fetal bovine serum) and regularly sub-cultured. In preparation for the assay, the cells were seeded in 96-well plates at a density of 80-100 k cells per well in 100 ul volume and allowed to rest overnight. […] Sigma, A3139). The test peptide dilution series were allowed to incubate at room temperature for 30 min. Then the media was aspirated from the 96-well cell plate and test peptide dilution series were added. […] The AF647-conjugated detection peptide was previously verified to bind to ferroportin and cause its internalization. The cells were washed again after a 2 hr incubation in preparation for flow cytometry analysis. The Median Fluorescence Intensity (MFI) of the AF647-positive population was measured (after removing dead cells and non-singlets from the analysis). The MFI values were used to generate a dose-response curve and obtain IC50 potencies for the test peptides.
row,SMILES,IC50 [nM]
1,CC(C)CC(=O)N[C@@H](CCC(=O)O)C(=O)N1CC[C@@H](O)[C@H]1C(=O)N[C@@H](Cc1c[nH]cn1)C(=O)N[C@H](C(=O)N1CCC[C@H]1C(=O)N[C@H]1CSSC[C@@H](C(=O)N(C)[C@@H](CCCCNC(=O)CCCCCNC(=O)C[N+](C)(C)CCNC(=O)CCCCCCCCCCCCCCCCC(=O)O)C(=O)N[C@H](C(N)=O)C(c2ccccc2)c2ccccc2)NC1=O)C(c1ccccc1)c1ccccc1 [compound 154] (Isovaleryl-E[Pro(3R-OH)]H[Dip]PCC[NMeK]([Ahx-X1])[Dip]-NH2; disulfide 6-7),10 to 100
2,COC(=O)CC[C@H](NC(=O)CC(C)C)C(=O)N1CC[C@@H](O)[C@H]1C(=O)N[C@@H](Cc1c[nH]cn1)C(=O)N[C@H](C(=O)N1CCC[C@H]1C(=O)N[C@H]1CSSC[C@@H](C(=O)N(C)[C@@H](CCCCNC(=O)CCCCCNC(=O)C[N+](C)(C)CCNC(=O)CCCCCCCCCCCCCCCCC(=O)O)C(=O)N[C@H](C(=O)N[C@H](CCCCN)C(N)=O)C(c2ccccc2)c2ccccc2)NC1=O)C(c1ccccc1)c1ccccc1 [compound 155] (Isovaleryl-E(OMe)[Pro(3R-OH)]H[Dip]PCC[NMeK]([Ahx-X1])[Dip][dK]-NH2; disulfide 6-7),10 to 100
3,CC(C)CC(=O)N[C@@H](CCC(=O)O)C(=O)N1CC[C@@H](O)[C@H]1C(=O)N[C@@H](Cc1c[nH]cn1)C(=O)N[C@H](C(=O)N1CCC[C@H]1C(=O)N[C@H]1CSSC[C@@H](C(=O)N(C)[C@@H](CCCCNC(=O)CCCCCNC(=O)C[N+](C)(C)CCNC(=O)CCCCCCCCCCCCCCCCC(=O)O)C(=O)N[C@H](C(=O)N(C)[C@@H](CCCCN)C(N)=O)C(c2ccccc2)c2ccccc2)NC1=O)C(c1ccccc1)c1ccccc1 [compound 156] (Isovaleryl-E[Pro(3R-OH)]H[Dip]PCC[NMeK]([Ahx-X1])[Dip][NMeK]-NH2; disulfide 6-7),10 to 100
4,CC(C)CC(=O)N[C@@H](CCC(=O)O)C(=O)N[C@H](C(=O)N[C@@H](Cc1c[nH]cn1)C(=O)N[C@H](C(=O)N1CCC[C@H]1C(=O)N[C@H]1CSSC[C@@H](C(=O)N(C)[C@@H](CCCCNC(=O)COCCOCCNC(=O)COCCOCCNC(=O)C[N+](C)(C)CCNC(=O)CCCCCCCCCCCCCCCCC(=O)O)C(=O)N[C@H](C(=O)N[C@H](CCCCN)C(N)=O)C(c2ccccc2)c2ccccc2)NC1=O)C(c1ccccc1)c1ccccc1)[C@@H](C)O [compound 158] (Isovaleryl-ETH[Dip]PCC[NMeK]([AEEA-AEEA-X1])[Dip][dK]-NH2; disulfide 6-7),10 to 100
5,CC(C)CC(=O)N[C@@H](CCC(=O)O)C(=O)N[C@H](C(=O)N[C@@H](Cc1cnc[nH]1)C(=O)N[C@H](C(=O)N1CCC[C@H]1C(=O)N[C@H]1CSSC[C@@H](C(=O)N(C)[C@@H](CCCCNC(=O)COCCOCCNC(=O)COCCOCCNC(=O)C[N+](C)(C)CCNC(=O)CCCCCCCCCCCCCCCCC(=O)O)C(=O)N[C@H](CC(=O)N[C@H](CCCCN)C(N)=O)Cc2ccccc2)NC1=O)C(c1ccccc1)c1ccccc1)[C@@H](C)O [compound 159] (Isovaleryl-ETH[Dip]PCC[NMeK]([AEEA-AEEA-X1])[β3hF][dK]-NH2; disulfide 6-7),10 to 100
6,COC(=O)CCCCCCCCCCCCCCCCC(=O)NCC[N+](C)(C)CC(=O)NCCCCCC(=O)NCCCC[C@H]1C(=O)NC(C(c2ccccc2)c2ccccc2)C(=O)N[C@@H](C(N)=O)CCCCNC(=O)CC[C@H](NC(=O)CC(C)C)C(=O)N[C@@H]([C@@H](C)O)C(=O)N[C@@H](Cc2c[nH]cn2)C(=O)N[C@@H](C(c2ccccc2)c2ccccc2)C(=O)N2CCC[C@H]2C(=O)N[C@H]2CSSC[C@H](NC2=O)C(=O)N1C (some centres unmarked) [compound 160] (Isovaleryl-ETH[Dip]PCC[NMeK]([Ahx-X13])[ξDip][dK]-NH2; lactam 1-10; disulfide 6-7),10 to 100
7,CCCCCCCCCCCCCCCC(=O)NCC[N+](C)(C)CC(=O)NCCCC[C@@H](C(=O)N[C@H](C(N)=O)C(c1ccccc1)c1ccccc1)N(C)C(=O)[C@@H]1CSSC[C@H](NC(=O)[C@@H]2CCCN2C(=O)[C@@H](NC(=O)[C@H](Cc2cnc[nH]2)NC(=O)[C@H]([C@@H](C)O)N(C)C(=O)[C@H](CCC(=O)O)NC(=O)CC(C)C)C(c2ccccc2)c2ccccc2)C(=O)N1 [compound 169] (Isovaleryl-E[NMeT]H[Dip]PCC[NMeK](X5)[Dip]-NH2; disulfide 6-7),1 to 10
8,CCCCCCCCCCCCCCCC(=O)NCC[N+](C)(C)CC(=O)NCCCCCC(=O)NCCCC[C@@H](C(=O)N[C@H](C(=O)N[C@H](CCCCN)C(N)=O)C(c1ccccc1)c1ccccc1)N(C)C(=O)[C@@H]1CSSC[C@H](NC(=O)[C@@H]2CCCN2C(=O)[C@@H](NC(=O)[C@H](Cc2cnc[nH]2)NC(=O)[C@H]([C@@H](C)O)N(C)C(=O)[C@H](CCC(=O)O)NC(=O)CC(C)C)C(c2ccccc2)c2ccccc2)C(=O)N1 [compound 170] (Isovaleryl-E[NMeT]H[Dip]PCC[NMeK]([Ahx-X5])[Dip][dK]-NH2; disulfide 6-7),1 to 10

# Other lines, results leading:
row,IC50 [nM],SMILES
1,1 to 10,CCCCCCCCCCCCCCCC(=O)NCCCCCC(=O)NCCCC[C@@H](C(=O)N[C@H](C(=O)NCCN)C(c1ccccc1)c1ccccc1)N(C)C(=O)C1CSSC[C@H](NC(=O)[C@@H]2CCCN2C(=O)[C@@H](NC(=O)[C@H](Cc2c[nH]cn2)NC(=O)[C@@H](NC(=O)[C@H](CCC(=O)O)NC(=O)CC(C)C)[C@@H](C)O)C(c2ccccc2)c2ccccc2)C(=O)N1 (some centres unmarked) [compound 164] (Isovaleryl-ETH[Dip]PC[ξC][NMeK]([Ahx-Palmitoyl])[Dip]-Ethylenediamine; disulfide 6-7)
2,1 to 10,CCCCCCCCCCCCCCCC(=O)NCCCCCC(=O)NCCCC[C@@H](C(=O)N[C@H](C(=O)N[C@H](CN)C(N)=O)C(c1ccccc1)c1ccccc1)N(C)C(=O)[C@@H]1CSSC[C@H](NC(=O)[C@@H]2CCCN2C(=O)[C@@H](NC(=O)[C@H](Cc2cnc[nH]2)NC(=O)[C@@H](NC(=O)[C@H](CCC(=O)O)NC(=O)CC(C)C)[C@@H](C)O)C(c2ccccc2)c2ccccc2)C(=O)N1 [compound 165] (Isovaleryl-ETH[Dip]PCC[NMeK]([Ahx-Palmitoyl])[Dip][dDap]-NH2; disulfide 6-7)
3,1 to 10,CCCCCCCCCCCCCCCC(=O)NCCCCCC(=O)NCCCC[C@@H](C(=O)N[C@H](C(=O)N[C@H](CCCCN)C(N)=O)C(c1ccccc1)c1ccccc1)N(C)C(=O)[C@@H]1CSSC[C@H](NC(=O)[C@@H]2CCCN2C(=O)[C@@H](NC(=O)[C@H](Cc2cnc[nH]2)NC(=O)[C@@H](NC(=O)[C@H](CCC(=O)O)N(C)C(=O)CC(C)C)[C@@H](C)O)C(c2ccccc2)c2ccccc2)C(=O)N1 [compound 166] (Isovaleryl-[NMeE]TH[Dip]PCC[NMeK]([Ahx-Palmitoyl])[Dip][dK]-NH2; disulfide 6-7)
4,1 to 10,CCCCCCCCCCCCCCCC(=O)NCC[N+](C)(C)CC(=O)NCCCCCC(=O)NCCCC[C@@H](C(=O)N[C@H](C(=O)N[C@H](CCCCN)C(N)=O)C(c1ccccc1)c1ccccc1)N(C)C(=O)[C@@H]1CSSC[C@H](NC(=O)[C@@H]2CCCN2C(=O)[C@@H](NC(=O)[C@H](Cc2cnc[nH]2)NC(=O)[C@@H](NC(=O)[C@H](CCC(=O)O)N(C)C(=O)CC(C)C)[C@@H](C)O)C(c2ccccc2)c2ccccc2)C(=O)N1 [compound 167] (Isovaleryl-[NMeE]TH[Dip]PCC[NMeK]([Ahx-X5])[Dip][dK]-NH2; disulfide 6-7)
5,1 to 10,CCCCCCCCCCCCCCCC(=O)NCCCCCC(=O)NCCCC[C@@H](C(=O)N[C@H](C(=O)N[C@H](CCCCN)C(N)=O)C(c1ccccc1)c1ccccc1)N(C)C(=O)[C@@H]1CSSC[C@H](NC(=O)[C@@H]2CCCN2C(=O)[C@@H](NC(=O)[C@H](Cc2cnc[nH]2)NC(=O)[C@@H](NC(=O)[C@H](CCO)NC(=O)CC(C)C)[C@@H](C)O)C(c2ccccc2)c2ccccc2)C(=O)N1 [compound 168] (Isovaleryl-[hSer]TH[Dip]PCC[NMeK]([Ahx-Palmitoyl])[Dip][dK]-NH2; disulfide 6-7)
6,1 to 10,CCCCCCCCCCCCCCCC(=O)NCCCCCC(=O)NCCCC[C@@H](C(=O)N[C@H](C(=O)N[C@H](CCCCN)C(N)=O)C(c1ccccc1)c1ccccc1)N(C)C(=O)[C@@H]1CSSC[C@H](NC(=O)[C@@H]2CCCN2C(=O)[C@@H](NC(=O)[C@H](Cc2cnc[nH]2)NC(=O)[C@@H]2CCCN2C(=O)[C@H](CCC(=O)O)NC(=O)CC(C)C)C(c2ccccc2)c2ccccc2)C(=O)N1 [compound 171] (Isovaleryl-EPH[Dip]PCC[NMeK]([Ahx-Palmitoyl])[Dip][dK]-NH2; disulfide 6-7)
